The text below walks through data of publication PMC8018184, “Evaluation of the Pharmacophoric Role of the O–O Bond in Synthetic Antileishmanial Compounds: Comparison between 1,2-Dioxanes and Tetrahydropyrans” (Journal of Medicinal Chemistry, 2020).

Data set [1] relates to L. donovani promastigotes (MHOM/NP/02/BPK282/0cl4). Kind of data set: Promastigote growth inhibition assay (alamarBlue). As to conditions: Leishmania donovani, HOMEM with 10% FBS. It is filed as cell-based. Background: Resazurin is reduced to fluorescent resorufin, in cell work by metabolically active cells.
Data set [2] in a line: Cytotoxicity test on THP-1 cells (alamarBlue). It counts as cell-based. To be noted: human, THP-1 cells (acute monocytic leukemia cell line); CSV supplement; read-out: CC50 against human acute monocytic leukemia cell line (THP-1). On the procedure: (§1) Vero cells (kidney of African green monkey epithelial cell line) were cultured at 37 °C in the MEM liquid medium supplemented with 10% FBS (EuroClone SpA), 1% levoglutamine (EuroClone SpA), and 1% penicillin–streptomycin (EuroClone SpA). THP-1 cells (human leukemia monocytic cell line) were cultured at 37 °C in the RPMI 1640 (EuroClone SpA) liquid medium supplemented with 10% FBS (EuroClone SpA), 1% levoglutamine (EuroClone SpA), 1% penicillin–streptomycin, and mercaptoethanol (Gibco) 50 μM.
(§2) The cytotoxicity of the compounds was determined using mammalian kidney epithelial cells (Vero cell line) and human acute monocytic leukemia cell line (THP-1). Cells were seeded (10^5 cells mL^–1) on 96-well plates with the complete MEM medium and incubated with test compounds at 37 °C in a 5% CO2 incubator. After 72 h of incubation, 20 μL of the alamarBlue reagent was added to each well and incubated at 37 °C for 24 h. Reduction of resazurin to resorufin was evaluated after 24 h by absorbance measurement at the Multiskan ascent plate reader (Thermo Fisher Scientific Inc.,) at 550 and 630 nm. […] Each experiment was performed in duplicate.
Cytotoxicity in THP-1 cell line
We performed additional cytotoxicity tests employing THP-1 cell line. We also calculated the
corresponding selectivity indexes, as the ratio between CC50 of THP-1 cell line and IC50 on amastigotes
THP-1 cells than on VERO cells; thus showing a not significant variance of selectivity index.
Table S3. Inhibitory activity of tetrahydropyrans 3 and endoperoxides 2 against amastigotes of L.
donovani, cytotoxicity in human acute monocytic leukemia cell line (THP-1) and selectivity index (SI).
Tetrahydropyran IC50 CC50 Endoperoxide IC50 CC50
a (µM)b (µM)c a (µM)b (µM)c
a Compounds tested as racemates. b IC50 represents the concentration of a compound that causes 50% growth inhibition.
Results represent the mean (± standard deviation, SD) of three independent experiments performed in duplicate. c CC50
represents 50% cytotoxic concentration on THP-1 cells. d Selectivity index (SI) = CC50/IC50. […]

In data set [3] the test system is intramacrophage amastigotes of L. donovani. Kind of data set: Amastigote growth inhibition assay in infected THP-1 cells (Giemsa, infectivity index). It is filed as cell-based, Leishmania donovani. As to conditions: for IC50: Leishmania donovani, intracellular amastigotes in THP-1, 72 h, read-out: IC50 against amastigotes of L. donovani. On the procedure:
To evaluate the efficacy of the compounds on the intracellular form of L. donovani, human acute monocytic leukemia cell line (THP-1) was infected with L. donovani promastigotes. Cells were harvested and seeded in a 96-well plate (10^5 cells mL^–1) in the complete RPMI 1640 medium, and PMA (0.1 μM, Cayman Chemical Company, Ann Arbor, Michigan, USA) was added for obtaining maturation and cell adherence. Cells were incubated at 37 °C in a 5% CO2 incubator. After 48 h, the medium was replaced with the fresh medium containing stationary-phase promastigotes that were then phagocyted by monocytic cells and transformed into intracellular amastigotes. After 24 h of incubation, newly synthesized compounds were added and the plates were incubated at 37 °C in a 5% CO2 incubator for 72 h. After incubation, wells were washed, fixed, and stained with Giemsa. Staining was detected using a Nikon Eclipse E200 light microscope (Nikon, Tokyo, Japan). The infectivity index (% of infected macrophages × average number of amastigotes per macrophage) was determined by counting at least 100 cells in duplicate cultures.

Data set [4] in a line: Cytotoxicity test on Vero cells (alamarBlue). It counts as cell-based, African green monkey. As to conditions: chlorocebus sabaeus, Vero cells (kidney epithelial cell line); 72 h, alamarBlue; read-out: CC50 (50% cytotoxic concentration) on Vero cells. On the procedure:
as §1, §2

Setting [5] is: THP-1 CC50 / IC50 on amastigotes.
Setting [6] is: Vero CC50 / IC50 on amastigotes.

As usually defined, the IC50 is the concentration that gives 50% inhibition. As to `CCCCC1(CCCC)CO[C@@](C)(OC)[C@@H](CNCCCn2ccnc2)C1` (racemic) [3a, N-((5,5-Dibutyl-2-methoxy-2-methyltetrahydro-2H-pyran-3-yl)methyl)-3-(1H-imidazol-1-yl)propan-1-amine], the figures for the IC50 in data set [1] and in data set [3] were 1.9 µM and 3.4 ± 0.6 µM, respectively. Moreover, the CC50 at 72 h in data set [2] was found to be 26 µM; in data set [4], 35.2 ± 4.7 µM. Besides, the “Selectivity index (SI) = CC50/IC50” value was determined as 7.6 in data set [3] (setting [5]) and 10.3 in data set [3] (setting [6]).
Turning to `CCCCC1(CCCC)C[C@H](CNCCCn2ccnc2)[C@](C)(OC)OO1` [2a], the IC50 in data set [1] was determined as 2.7 µM; in data set [3] it was 12.2 ± 1.2 µM. Besides, the figures for the CC50 at 72 h in data set [2] and in data set [4] were 86 µM and 72 ± 6.6 µM, respectively. The results for the “Selectivity index (SI) = CC50/IC50” value in data set [3] (setting [5]) and in data set [3] (setting [6]) were 7.0 and 5.9, respectively.
